# According to article PMC9898036, “VIP152 is a selective CDK9 inhibitor with pre-clinical in vitro and in vivo efficacy in chronic lymphocytic leukemia” (Leukemia, 2022):
# Like-named read-outs stand apart in the source and are kept apart here.
# Legend:
# Test in all cases: DiscoverX KINOMEscan kinase profiling (468 assays)
# Type in all cases: binding
# human kinome [1] = molecular target: human kinome (Homo sapiens, UniProt P22455); conditions: FGFR4; 100 nM; read-out: Percent Control
# Summary of the method: (§1)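 DNA-tagged kinases competed for immobilized biotinylated ligands on streptavidin magnetic beads, with bound kinase quantified by qPCR. VIP152 in DMSO was tested against a DMSO control.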
# human kinome [2] = molecular target: human kinome (Homo sapiens, UniProt O75676); conditions: compound concentration 1000 nM, read-out: Percent Control
# Summary of the method: as §1
# human kinome [3] = molecular target: human kinome (Homo sapiens, UniProt Q8N5S9); conditions: CAMKK1; 100 nM; read-out: Percent Control
# Summary of the method: as §1
# human kinome [4] = molecular target: human kinome (Homo sapiens, UniProt O75747); conditions: read-out: Percent Control
# Summary of the method: as §1
# human kinome [5] = molecular target: human kinome (Homo sapiens, UniProt Q9UHD2); conditions: kinase TBK1 (Entrez TBK1); compound concentration 1000 nM; read-out: Percent Control
# Summary of the method: as §1
# human kinome [6] = molecular target: human kinome (Homo sapiens, UniProt P42685); conditions: FRK; 100 nM; read-out: Percent Control
# Summary of the method: as §1
# human kinome [7] = molecular target: human kinome (Homo sapiens, UniProt O00329); conditions: read-out: Percent Control
# Summary of the method: as §1
# human kinome [8] = molecular target: human kinome (Homo sapiens, UniProt P00533, T790M); conditions: EGFR(T790M); 100 nM; read-out: Percent Control
# Summary of the method: as §1
# human kinome [9] = molecular target: human kinome (Homo sapiens, UniProt Q9UK32); conditions: compound concentration 1000 nM, read-out: Percent Control
# Summary of the method: as §1
# human kinome [10] = molecular target: human kinome (Homo sapiens, UniProt Q9NRP7); conditions: kinase STK36 (Entrez STK36); compound concentration 1000 nM; read-out: Percent Control
# Summary of the method: as §1
# human kinome [11] = molecular target: human kinome (Homo sapiens, UniProt Q15303); conditions: ERBB4; 100 nM; read-out: Percent Control
# Summary of the method: as §1
# human kinome [12] = molecular target: human kinome (Homo sapiens, UniProt Q56UN5); conditions: kinase YSK4 (Entrez MAP3K19); compound concentration 1000 nM; read-out: Percent Control
# Summary of the method: as §1
# human kinome [13] = molecular target: human kinome (Homo sapiens, UniProt Q8NG66); conditions: read-out: Percent Control
# Summary of the method: as §1
# human kinome [14] = molecular target: human kinome (Homo sapiens, UniProt Q9NYL2); conditions: kinase ZAK (Entrez ZAK); compound concentration 1000 nM; read-out: Percent Control
# Summary of the method: as §1
# human kinome [15] = molecular target: human kinome (Homo sapiens, UniProt O75385); conditions: kinase ULK1 (Entrez ULK1); compound concentration 1000 nM; read-out: Percent Control
# Summary of the method: as §1
# human kinome [16] = molecular target: human kinome (Homo sapiens, UniProt Q96SB4); conditions: kinase SRPK1 (Entrez SRPK1); compound concentration 1000 nM; read-out: Percent Control
# Summary of the method: as §1
# human kinome [17] = molecular target: human kinome (Homo sapiens, UniProt Q9UM73, L1196M); conditions: ALK(L1196M); 100 nM; read-out: Percent Control
# Summary of the method: as §1
# human kinome [18] = molecular target: human kinome (Homo sapiens, UniProt P15056, V600E); conditions: BRAF(V600E); 100 nM; read-out: Percent Control
# Summary of the method: as §1
# human kinome [19] = molecular target: human kinome (Homo sapiens, UniProt Q9UPZ9); conditions: ICK; 100 nM; read-out: Percent Control
# Summary of the method: as §1
# human kinome [20] = molecular target: human kinome (Homo sapiens, UniProt Q8NEB9); conditions: kinase VPS34 (Entrez PIK3C3); compound concentration 1000 nM; read-out: Percent Control
# Summary of the method: as §1
# human kinome [21] = molecular target: human kinome (Homo sapiens, UniProt O15075); conditions: DCAMKL1 (Entrez DCLK1); 100 nM; read-out: Percent Control
# Summary of the method: as §1
# human kinome [22] = molecular target: human kinome (Homo sapiens, UniProt Q9P286); conditions: read-out: Percent Control
# Summary of the method: as §1
# human kinome [23] = molecular target: human kinome (Homo sapiens, UniProt Q13163); conditions: MEK5 (Entrez MAP2K5); 100 nM; read-out: Percent Control
# Summary of the method: as §1
# human kinome [24] = molecular target: human kinome (Homo sapiens, UniProt P42336, E542K); conditions: read-out: Percent Control
# Summary of the method: as §1
# human kinome [25] = molecular target: human kinome (Homo sapiens, UniProt P54753); conditions: EPHB3; 100 nM; read-out: Percent Control
# Summary of the method: as §1
# human kinome [26] = molecular target: human kinome (Homo sapiens, UniProt Q8N752); conditions: CSNK1A1L; 100 nM; read-out: Percent Control
# Summary of the method: as §1
# human kinome [27] = molecular target: human kinome (Homo sapiens, UniProt Q04912); conditions: MST1R; 100 nM; read-out: Percent Control
# Summary of the method: as §1
# human kinome [28] = molecular target: human kinome (Homo sapiens, UniProt Q13164); conditions: ERK5 (Entrez MAPK7); 100 nM; read-out: Percent Control
# Summary of the method: as §1
# human kinome [29] = molecular target: human kinome (Homo sapiens, UniProt Q04771); conditions: ACVR1; 100 nM; read-out: Percent Control
# Summary of the method: as §1
# human kinome (Homo sapiens, UniProt P42336, E542K), sequence (P42336 whole entry E542K): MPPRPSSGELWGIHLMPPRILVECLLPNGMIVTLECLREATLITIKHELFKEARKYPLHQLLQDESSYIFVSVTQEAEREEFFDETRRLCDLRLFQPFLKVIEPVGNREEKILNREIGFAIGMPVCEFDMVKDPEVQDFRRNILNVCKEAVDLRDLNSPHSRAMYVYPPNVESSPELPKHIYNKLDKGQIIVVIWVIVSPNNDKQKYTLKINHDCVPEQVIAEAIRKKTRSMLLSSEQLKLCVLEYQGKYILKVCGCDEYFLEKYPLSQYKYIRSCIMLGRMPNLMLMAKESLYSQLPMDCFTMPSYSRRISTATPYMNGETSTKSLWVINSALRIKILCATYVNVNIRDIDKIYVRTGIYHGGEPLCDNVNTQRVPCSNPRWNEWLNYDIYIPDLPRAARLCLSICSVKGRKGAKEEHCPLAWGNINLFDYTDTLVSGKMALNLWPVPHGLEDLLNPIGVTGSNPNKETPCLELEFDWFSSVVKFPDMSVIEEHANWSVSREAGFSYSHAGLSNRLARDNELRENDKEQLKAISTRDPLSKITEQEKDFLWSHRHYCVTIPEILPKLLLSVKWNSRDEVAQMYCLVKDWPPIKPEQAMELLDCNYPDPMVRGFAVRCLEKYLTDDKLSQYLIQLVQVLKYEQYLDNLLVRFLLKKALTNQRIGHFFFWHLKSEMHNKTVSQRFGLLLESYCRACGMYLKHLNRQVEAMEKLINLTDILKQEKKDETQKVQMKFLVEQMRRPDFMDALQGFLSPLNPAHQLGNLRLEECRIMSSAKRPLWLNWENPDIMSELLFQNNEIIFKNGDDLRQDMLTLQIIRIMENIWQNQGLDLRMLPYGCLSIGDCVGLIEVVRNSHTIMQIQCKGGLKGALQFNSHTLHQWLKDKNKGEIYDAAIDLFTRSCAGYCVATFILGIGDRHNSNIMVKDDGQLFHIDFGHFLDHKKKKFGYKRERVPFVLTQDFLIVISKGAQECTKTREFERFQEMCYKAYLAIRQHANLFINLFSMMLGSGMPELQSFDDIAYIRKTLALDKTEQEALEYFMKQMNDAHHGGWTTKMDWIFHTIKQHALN
# human kinome (Homo sapiens, UniProt O75676), sequence (O75676 whole entry): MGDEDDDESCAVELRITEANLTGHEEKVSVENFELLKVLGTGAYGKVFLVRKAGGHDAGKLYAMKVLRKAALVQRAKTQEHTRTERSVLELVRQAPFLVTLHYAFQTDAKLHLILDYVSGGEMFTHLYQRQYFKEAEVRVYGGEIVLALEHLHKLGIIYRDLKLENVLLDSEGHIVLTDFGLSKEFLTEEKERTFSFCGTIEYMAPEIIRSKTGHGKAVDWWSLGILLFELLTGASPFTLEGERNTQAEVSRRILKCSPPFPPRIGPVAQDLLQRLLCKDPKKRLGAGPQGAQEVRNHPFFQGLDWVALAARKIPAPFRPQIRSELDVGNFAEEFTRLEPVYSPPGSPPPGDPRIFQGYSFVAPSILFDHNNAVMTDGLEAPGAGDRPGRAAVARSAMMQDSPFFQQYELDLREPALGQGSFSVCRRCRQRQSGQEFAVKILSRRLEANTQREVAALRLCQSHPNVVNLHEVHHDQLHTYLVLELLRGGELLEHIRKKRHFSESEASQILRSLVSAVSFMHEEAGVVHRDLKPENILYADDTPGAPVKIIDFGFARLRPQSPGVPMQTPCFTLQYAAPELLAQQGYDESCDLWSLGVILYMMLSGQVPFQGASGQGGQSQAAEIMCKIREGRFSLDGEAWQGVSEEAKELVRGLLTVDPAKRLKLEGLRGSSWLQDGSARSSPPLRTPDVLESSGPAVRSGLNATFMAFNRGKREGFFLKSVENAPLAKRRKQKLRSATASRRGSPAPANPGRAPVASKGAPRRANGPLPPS
# human kinome (Homo sapiens, UniProt Q9P286), sequence (Q9P286 whole entry): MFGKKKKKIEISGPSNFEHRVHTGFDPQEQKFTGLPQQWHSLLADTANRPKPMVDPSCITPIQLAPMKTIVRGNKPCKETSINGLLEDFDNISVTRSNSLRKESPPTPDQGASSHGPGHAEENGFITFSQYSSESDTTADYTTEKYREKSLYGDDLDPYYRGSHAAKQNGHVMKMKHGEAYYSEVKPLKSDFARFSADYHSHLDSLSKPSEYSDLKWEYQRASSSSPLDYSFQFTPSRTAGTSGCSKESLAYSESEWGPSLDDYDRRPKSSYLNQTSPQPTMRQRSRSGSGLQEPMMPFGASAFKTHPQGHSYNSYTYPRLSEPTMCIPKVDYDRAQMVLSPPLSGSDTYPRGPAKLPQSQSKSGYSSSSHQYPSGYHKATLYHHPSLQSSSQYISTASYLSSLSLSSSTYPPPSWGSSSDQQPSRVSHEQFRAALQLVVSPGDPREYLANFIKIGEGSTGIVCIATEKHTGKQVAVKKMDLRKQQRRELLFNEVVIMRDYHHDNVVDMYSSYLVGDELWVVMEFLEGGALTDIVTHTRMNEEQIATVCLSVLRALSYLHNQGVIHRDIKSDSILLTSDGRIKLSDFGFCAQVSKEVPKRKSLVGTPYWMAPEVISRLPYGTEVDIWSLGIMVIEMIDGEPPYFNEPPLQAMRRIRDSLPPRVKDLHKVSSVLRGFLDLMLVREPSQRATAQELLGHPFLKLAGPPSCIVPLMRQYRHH
# human kinome (Homo sapiens, UniProt Q9UK32), sequence (Q9UK32 whole entry): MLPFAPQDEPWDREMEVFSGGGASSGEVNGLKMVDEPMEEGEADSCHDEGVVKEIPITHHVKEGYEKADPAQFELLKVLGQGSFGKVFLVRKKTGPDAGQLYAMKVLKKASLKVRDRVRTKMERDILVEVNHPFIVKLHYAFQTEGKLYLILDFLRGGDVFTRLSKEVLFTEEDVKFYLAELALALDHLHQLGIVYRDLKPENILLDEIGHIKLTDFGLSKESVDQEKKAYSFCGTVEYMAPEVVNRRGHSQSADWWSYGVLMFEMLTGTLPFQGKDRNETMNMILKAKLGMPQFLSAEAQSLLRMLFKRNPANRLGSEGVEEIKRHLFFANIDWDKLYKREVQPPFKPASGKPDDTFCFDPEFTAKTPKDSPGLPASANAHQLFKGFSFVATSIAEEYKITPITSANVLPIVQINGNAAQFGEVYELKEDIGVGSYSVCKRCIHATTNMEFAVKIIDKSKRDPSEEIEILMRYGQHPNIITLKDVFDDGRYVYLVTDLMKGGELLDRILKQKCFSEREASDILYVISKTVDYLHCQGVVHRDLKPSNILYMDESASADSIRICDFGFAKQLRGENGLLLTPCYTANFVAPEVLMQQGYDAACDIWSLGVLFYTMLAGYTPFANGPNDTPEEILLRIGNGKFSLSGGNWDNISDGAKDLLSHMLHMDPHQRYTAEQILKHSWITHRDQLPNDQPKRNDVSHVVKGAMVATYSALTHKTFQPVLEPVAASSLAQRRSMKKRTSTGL
# human kinome (Homo sapiens, UniProt O00329), sequence (O00329 whole entry): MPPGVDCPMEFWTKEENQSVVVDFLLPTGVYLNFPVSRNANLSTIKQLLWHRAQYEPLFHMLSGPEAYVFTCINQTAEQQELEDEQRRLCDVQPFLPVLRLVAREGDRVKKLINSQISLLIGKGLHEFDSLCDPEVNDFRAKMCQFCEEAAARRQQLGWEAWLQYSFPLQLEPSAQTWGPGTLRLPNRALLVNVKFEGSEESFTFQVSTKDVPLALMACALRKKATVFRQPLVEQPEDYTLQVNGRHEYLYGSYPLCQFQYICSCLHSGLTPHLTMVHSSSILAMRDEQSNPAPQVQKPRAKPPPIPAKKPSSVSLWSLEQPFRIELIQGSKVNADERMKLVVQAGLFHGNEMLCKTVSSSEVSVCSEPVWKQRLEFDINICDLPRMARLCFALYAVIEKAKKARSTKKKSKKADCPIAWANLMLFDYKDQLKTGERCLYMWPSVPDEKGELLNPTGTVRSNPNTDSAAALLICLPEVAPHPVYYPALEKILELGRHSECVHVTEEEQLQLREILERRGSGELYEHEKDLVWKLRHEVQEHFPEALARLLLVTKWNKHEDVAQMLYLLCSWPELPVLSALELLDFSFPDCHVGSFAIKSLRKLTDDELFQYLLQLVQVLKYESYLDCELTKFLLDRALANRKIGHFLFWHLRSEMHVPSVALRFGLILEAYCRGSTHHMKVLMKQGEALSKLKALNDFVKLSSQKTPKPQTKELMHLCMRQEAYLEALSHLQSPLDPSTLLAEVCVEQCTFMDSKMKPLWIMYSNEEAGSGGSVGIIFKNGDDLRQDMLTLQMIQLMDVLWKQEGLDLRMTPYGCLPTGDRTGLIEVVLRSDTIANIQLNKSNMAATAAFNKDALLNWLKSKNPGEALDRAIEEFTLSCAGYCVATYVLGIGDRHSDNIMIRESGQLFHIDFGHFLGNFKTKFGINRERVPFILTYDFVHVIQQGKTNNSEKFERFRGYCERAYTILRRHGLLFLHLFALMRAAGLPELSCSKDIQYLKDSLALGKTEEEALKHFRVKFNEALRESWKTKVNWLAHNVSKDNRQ
# human kinome (Homo sapiens, UniProt Q8NG66), sequence (Q8NG66 whole entry): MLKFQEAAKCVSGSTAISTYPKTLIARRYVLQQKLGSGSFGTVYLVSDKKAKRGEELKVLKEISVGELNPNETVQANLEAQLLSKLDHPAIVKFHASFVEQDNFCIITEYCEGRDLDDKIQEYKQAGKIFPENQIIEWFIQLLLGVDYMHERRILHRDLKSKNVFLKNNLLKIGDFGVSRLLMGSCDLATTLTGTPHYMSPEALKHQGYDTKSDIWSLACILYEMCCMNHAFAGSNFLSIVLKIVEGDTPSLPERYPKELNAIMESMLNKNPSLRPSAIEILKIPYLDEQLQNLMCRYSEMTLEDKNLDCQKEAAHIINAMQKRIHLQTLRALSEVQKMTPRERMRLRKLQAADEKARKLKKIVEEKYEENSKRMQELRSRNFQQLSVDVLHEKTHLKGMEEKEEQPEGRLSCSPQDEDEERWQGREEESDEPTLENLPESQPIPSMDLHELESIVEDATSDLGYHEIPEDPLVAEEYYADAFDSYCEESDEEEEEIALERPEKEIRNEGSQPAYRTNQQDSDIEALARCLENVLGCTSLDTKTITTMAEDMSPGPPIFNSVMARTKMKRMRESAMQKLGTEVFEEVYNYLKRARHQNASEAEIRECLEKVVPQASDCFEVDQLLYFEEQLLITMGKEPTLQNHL
structure (smiles),measurement,setting,value
COc1cc(F)ccc1-c1cc(Nc2cc(CS(C)(=N)=O)ccn2)ncc1F (stereo not drawn) [VIP152],remaining binding at 0.1 µM,human kinome [1],100%
same,remaining binding at 1 µM,human kinome [2]; kinase RPS6KA4(Kin.Dom.1-N-terminal) (Entrez RPS6KA4),85%
same,remaining binding at 1 µM,human kinome [2]; kinase RPS6KA4(Kin.Dom.2-C-terminal) (Entrez RPS6KA4),71%
same,remaining binding at 0.1 µM,human kinome [3],89%
same,remaining binding at 0.1 µM,"human kinome [4]; PIK3C2G, 100 nM",100%
same,remaining binding at 1 µM,"human kinome [4]; kinase PIK3C2G (Entrez PIK3C2G), compound concentration 1000 nM",94%
same,remaining binding at 1 µM,human kinome [5],100%
same,remaining binding at 0.1 µM,human kinome [6],100%
same,remaining binding at 0.1 µM,"human kinome [7]; PIK3CD, 100 nM",100%
same,remaining binding at 1 µM,"human kinome [7]; kinase PIK3CD (Entrez PIK3CD), compound concentration 1000 nM",75%
same,remaining binding at 0.1 µM,human kinome [8],100%
same,remaining binding at 1 µM,human kinome [9]; kinase RSK4(Kin.Dom.1-N-terminal) (Entrez RPS6KA6),94%
same,remaining binding at 1 µM,human kinome [9]; kinase RSK4(Kin.Dom.2-C-terminal) (Entrez RPS6KA6),89%
same,remaining binding at 1 µM,human kinome [10],84%
same,remaining binding at 0.1 µM,human kinome [11],100%
same,remaining binding at 1 µM,human kinome [12],19%
same,remaining binding at 0.1 µM,"human kinome [13]; NEK11, 100 nM",100%
same,remaining binding at 1 µM,"human kinome [13]; kinase NEK11 (Entrez NEK11), compound concentration 1000 nM",74%
same,remaining binding at 1 µM,human kinome [14],79%
same,remaining binding at 1 µM,human kinome [15],90%
same,remaining binding at 1 µM,human kinome [16],91%
same,remaining binding at 0.1 µM,human kinome [17],100%
same,remaining binding at 0.1 µM,human kinome [18],100%
same,remaining binding at 0.1 µM,human kinome [19],95%
same,remaining binding at 1 µM,human kinome [20],100%
same,remaining binding at 0.1 µM,human kinome [21],91%
same,remaining binding at 0.1 µM,"human kinome [22]; PAK7, 100 nM",100%
same,remaining binding at 1 µM,"human kinome [22]; kinase PAK7 (Entrez PAK7), compound concentration 1000 nM",78%
same,remaining binding at 0.1 µM,human kinome [23],100%
same,remaining binding at 0.1 µM,"human kinome [24]; PIK3CA(E542K), 100 nM",100%
same,remaining binding at 1 µM,"human kinome [24]; kinase PIK3CA(E542K) (Entrez PIK3CA), compound concentration 1000 nM",100%
same,remaining binding at 0.1 µM,human kinome [25],100%
same,remaining binding at 0.1 µM,human kinome [26],100%
same,remaining binding at 0.1 µM,human kinome [27],100%
same,remaining binding at 0.1 µM,human kinome [28],100%
same,remaining binding at 0.1 µM,human kinome [29],100%
